Experimental data as given in ChEMBL document CHEMBL1138676, “Liver-selective glucocorticoid antagonists: a novel treatment for type 2 diabetes” (J Med Chem, 2004).
pKi: −log10 of the molar value.

How the values were obtained:
Androgen receptor = target: T1, Androgen receptor (Homo sapiens, UniProt P10275)
T1 sequence (P10275 whole entry): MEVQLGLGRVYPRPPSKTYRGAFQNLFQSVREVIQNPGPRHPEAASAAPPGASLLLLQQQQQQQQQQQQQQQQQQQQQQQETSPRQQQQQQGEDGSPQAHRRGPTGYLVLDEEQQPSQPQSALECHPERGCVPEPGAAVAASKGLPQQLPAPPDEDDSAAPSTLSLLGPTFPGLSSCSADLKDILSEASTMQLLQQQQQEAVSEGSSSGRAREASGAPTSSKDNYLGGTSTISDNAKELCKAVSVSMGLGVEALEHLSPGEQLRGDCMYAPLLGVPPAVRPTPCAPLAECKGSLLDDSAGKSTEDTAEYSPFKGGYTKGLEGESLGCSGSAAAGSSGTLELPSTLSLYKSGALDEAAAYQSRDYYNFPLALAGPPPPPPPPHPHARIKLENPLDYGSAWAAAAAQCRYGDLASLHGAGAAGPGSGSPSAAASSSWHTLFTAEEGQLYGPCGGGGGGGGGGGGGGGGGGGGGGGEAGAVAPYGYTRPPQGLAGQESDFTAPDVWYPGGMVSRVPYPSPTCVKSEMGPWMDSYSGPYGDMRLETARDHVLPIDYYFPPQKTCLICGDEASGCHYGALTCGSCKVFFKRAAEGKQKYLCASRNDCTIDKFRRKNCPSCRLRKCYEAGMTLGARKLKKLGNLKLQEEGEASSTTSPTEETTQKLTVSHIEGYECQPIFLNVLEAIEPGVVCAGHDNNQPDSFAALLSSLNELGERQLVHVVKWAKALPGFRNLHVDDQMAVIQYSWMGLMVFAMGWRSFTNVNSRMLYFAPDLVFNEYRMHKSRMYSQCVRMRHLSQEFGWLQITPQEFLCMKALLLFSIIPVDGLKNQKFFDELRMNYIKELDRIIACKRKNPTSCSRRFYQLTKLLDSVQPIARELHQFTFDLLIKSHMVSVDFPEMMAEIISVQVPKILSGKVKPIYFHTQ
Description: Inhibition of human androgen receptor

Estrogen receptor = target: T2, Estrogen receptor (Homo sapiens, UniProt P03372); assay: Inhibition of human Estrogen receptor alpha
T2 sequence (P03372 whole entry): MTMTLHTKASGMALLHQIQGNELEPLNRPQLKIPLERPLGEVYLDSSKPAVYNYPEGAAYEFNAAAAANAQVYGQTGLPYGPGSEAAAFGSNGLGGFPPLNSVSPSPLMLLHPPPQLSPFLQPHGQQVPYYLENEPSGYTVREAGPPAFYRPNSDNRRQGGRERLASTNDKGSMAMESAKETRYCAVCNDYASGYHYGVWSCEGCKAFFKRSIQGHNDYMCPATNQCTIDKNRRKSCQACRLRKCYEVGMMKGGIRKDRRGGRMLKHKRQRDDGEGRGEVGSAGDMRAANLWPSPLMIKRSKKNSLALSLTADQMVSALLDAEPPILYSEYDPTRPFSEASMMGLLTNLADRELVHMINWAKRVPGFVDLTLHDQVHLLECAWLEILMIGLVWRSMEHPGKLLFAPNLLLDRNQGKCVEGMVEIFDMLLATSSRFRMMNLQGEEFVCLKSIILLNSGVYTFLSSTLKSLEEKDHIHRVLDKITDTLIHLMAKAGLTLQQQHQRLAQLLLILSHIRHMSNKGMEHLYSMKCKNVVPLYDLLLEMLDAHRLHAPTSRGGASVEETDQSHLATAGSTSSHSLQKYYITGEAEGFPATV

Glucocorticoid receptor [1] = target: T3, Glucocorticoid receptor (Homo sapiens, UniProt P04150); assay: Inhibition of human glucocorticoid receptor
T3 sequence (P04150 whole entry): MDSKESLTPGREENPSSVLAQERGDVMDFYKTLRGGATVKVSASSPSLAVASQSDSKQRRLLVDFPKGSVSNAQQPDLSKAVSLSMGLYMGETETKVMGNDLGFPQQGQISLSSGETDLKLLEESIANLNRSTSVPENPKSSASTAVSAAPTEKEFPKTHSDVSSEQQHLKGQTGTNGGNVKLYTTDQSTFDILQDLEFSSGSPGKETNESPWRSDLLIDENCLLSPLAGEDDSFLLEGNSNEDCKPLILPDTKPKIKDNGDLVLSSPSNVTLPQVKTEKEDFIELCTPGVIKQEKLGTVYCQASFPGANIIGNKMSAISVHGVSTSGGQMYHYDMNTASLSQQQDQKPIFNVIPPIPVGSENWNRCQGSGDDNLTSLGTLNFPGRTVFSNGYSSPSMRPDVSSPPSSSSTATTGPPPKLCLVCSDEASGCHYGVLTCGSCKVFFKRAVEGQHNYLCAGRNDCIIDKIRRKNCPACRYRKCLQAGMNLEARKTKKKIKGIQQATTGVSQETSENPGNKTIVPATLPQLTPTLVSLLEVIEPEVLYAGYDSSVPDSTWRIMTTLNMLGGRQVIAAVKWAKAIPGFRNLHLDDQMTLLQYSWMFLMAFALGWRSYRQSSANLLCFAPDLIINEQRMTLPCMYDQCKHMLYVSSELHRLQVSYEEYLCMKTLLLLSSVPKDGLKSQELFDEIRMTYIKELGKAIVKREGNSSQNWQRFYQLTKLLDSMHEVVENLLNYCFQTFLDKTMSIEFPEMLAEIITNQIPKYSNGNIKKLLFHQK

[2] = target: Glucocorticoid receptor (Rattus norvegicus) (UniProt P06536); assay: Inhibition of glucocorticoid receptor mediated tyrosine amino transferase activity
Sequence of Glucocorticoid receptor (Rattus norvegicus) (P06536 whole entry, looked up): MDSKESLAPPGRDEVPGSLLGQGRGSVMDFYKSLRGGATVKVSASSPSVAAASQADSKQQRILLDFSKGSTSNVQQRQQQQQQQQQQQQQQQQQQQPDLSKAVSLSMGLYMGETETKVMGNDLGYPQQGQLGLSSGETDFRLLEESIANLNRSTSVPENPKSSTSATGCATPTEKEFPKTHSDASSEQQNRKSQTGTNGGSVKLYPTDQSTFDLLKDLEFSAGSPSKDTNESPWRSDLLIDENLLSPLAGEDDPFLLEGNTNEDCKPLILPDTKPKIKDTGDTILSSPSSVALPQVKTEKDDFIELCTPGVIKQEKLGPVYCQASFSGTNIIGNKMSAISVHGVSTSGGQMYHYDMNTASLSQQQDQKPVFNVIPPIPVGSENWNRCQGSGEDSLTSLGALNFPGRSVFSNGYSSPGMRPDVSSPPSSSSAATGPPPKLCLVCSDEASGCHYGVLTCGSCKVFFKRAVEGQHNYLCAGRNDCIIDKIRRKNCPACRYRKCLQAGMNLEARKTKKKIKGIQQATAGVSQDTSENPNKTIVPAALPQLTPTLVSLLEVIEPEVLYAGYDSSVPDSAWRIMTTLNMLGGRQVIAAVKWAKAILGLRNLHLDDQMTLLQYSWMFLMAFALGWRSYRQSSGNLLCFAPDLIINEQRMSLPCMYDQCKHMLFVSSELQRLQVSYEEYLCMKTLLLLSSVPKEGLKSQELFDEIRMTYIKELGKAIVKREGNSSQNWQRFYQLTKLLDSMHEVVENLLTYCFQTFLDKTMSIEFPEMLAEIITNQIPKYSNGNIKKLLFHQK

[3] = target: T4, Thyroid hormone receptor alpha (Homo sapiens, UniProt P10827); assay: Inhibition of human Thyroid hormone receptor alpha
T4 sequence (P10827 whole entry): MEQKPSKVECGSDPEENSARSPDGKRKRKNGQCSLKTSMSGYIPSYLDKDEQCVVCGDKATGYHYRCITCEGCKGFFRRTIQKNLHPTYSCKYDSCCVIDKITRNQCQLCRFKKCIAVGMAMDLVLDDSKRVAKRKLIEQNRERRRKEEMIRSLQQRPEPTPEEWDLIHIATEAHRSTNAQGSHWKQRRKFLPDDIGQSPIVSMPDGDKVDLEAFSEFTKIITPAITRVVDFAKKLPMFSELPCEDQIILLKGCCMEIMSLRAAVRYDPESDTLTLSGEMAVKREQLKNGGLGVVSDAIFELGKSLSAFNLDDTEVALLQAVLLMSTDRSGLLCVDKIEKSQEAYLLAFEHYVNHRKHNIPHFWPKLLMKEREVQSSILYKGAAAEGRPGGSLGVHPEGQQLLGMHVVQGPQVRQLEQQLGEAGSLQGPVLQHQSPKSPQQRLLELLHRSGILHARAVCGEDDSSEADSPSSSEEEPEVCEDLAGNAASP

Glucocorticoid receptor [4] = target: T3, Glucocorticoid receptor; assay: Inhibition of glucocorticoid receptor dependent alkaline phosphatase activity; type: functional

Compound | pKi (Androgen receptor) | pKi (Estrogen receptor) | pKi (Glucocorticoid receptor [1]) | pKi [2] | pKi [3] | pKi (Glucocorticoid receptor [4])
C#C[C@]1(O)CC[C@H]2[C@@H]3CCC4=CC(=O)CCC4=C3[C@@H](c3ccc(N(C)CCNC(=O)OC4CC[C@@]5(C)[C@@H](C4)C[C@@H](O)[C@@H]4[C@@H]5C[C@H](O)[C@]5(C)[C@@H]([C@H](C)CCC(=O)O)CC[C@@H]45)cc3)C[C@@]21C (some centres undefined) | 8.21 | < 6.70 | 9.41 | 6.48 | < 5.90 | 8.85
C#C[C@]1(O)CC[C@H]2[C@@H]3CCC4=CC(=O)CCC4=C3[C@@H](c3ccc(N(C)C(=O)CNC(=O)OC4CC[C@@]5(C)[C@@H](C4)C[C@@H](O)[C@@H]4[C@@H]5C[C@H](O)[C@]5(C)[C@@H]([C@H](C)CCC(=O)O)CC[C@@H]45)cc3)C[C@@]21C (some centres undefined) | 7.68 | 7.96 | 8.68 | 6.47 | 5.96 | 7.30
C#C[C@]1(O)CC[C@H]2[C@@H]3CCC4=CC(=O)CCC4=C3[C@@H](c3ccc(N(C)CCC[C@H]4[C@H](O)CC[C@@]5(C)[C@@H]4C[C@@H](O)[C@@H]4[C@@H]5C[C@H](O)[C@]5(C)[C@@H]([C@H](C)CCC(=O)O)CC[C@@H]45)cc3)C[C@@]21C | 7.28 | 7.34 | 9.10 | 6.47 |  | 7.28
C#C[C@]1(O)CC[C@H]2[C@@H]3CCC4=CC(=O)CCC4=C3[C@@H](c3ccc(N(C)CCNC(=O)N(C)C4CC[C@@]5(C)[C@@H](C4)C[C@@H](O)[C@@H]4[C@@H]5C[C@H](O)[C@]5(C)[C@@H]([C@H](C)CCC(=O)O)CC[C@@H]45)cc3)C[C@@]21C (some centres undefined) | 7.80 | 6.85 | 9.52 | 7.47 | < 5.90 | 7.82
C#C[C@]1(O)CC[C@H]2[C@@H]3CCC4=CC(=O)CCC4=C3[C@@H](c3ccc(N(C)CCCOC4CC[C@@]5(C)[C@@H](C4)C[C@@H](O)[C@@H]4[C@@H]5C[C@H](O)[C@]5(C)[C@@H]([C@H](C)CCC(=O)O)CC[C@@H]45)cc3)C[C@@]21C (some centres undefined) | 8.34 | 8.06 | 9.66 | 7.00 | < 5.90 | 8.96
C#C[C@]1(O)CC[C@H]2[C@@H]3CCC4=CC(=O)CCC4=C3[C@@H](c3ccc(N(C)CCOC4CC[C@@]5(C)[C@@H](C4)C[C@@H](O)[C@@H]4[C@@H]5C[C@H](O)[C@]5(C)[C@@H]([C@H](C)CCC(=O)NCC(=O)O)CC[C@@H]45)cc3)C[C@@]21C (some centres undefined) | 7.47 |  | 9.38 | 6.74 | < 5.90 | 8.07
C#C[C@]1(O)CC[C@H]2[C@@H]3CCC4=CC(=O)CCC4=C3[C@@H](c3ccc(N(C)C(=O)CNC(=O)O[C@@H]4C[C@@H]5CC(O)CC[C@]5(C)[C@H]5C[C@H](O)[C@]6(C)[C@@H]([C@H](C)CCC(=O)O)CC[C@H]6[C@H]45)cc3)C[C@@]21C (some centres undefined) | 7.43 | 7.03 | 8.96 | 6.64 | < 5.90 | 7.31
C#C[C@]1(O)CC[C@H]2[C@@H]3CCC4=CC(=O)CCC4=C3[C@@H](c3ccc(N(C)CCOCCO[C@H]4CC[C@@]5(C)[C@@H](C4)C[C@@H](O)[C@@H]4[C@@H]5C[C@H](O)[C@]5(C)[C@@H]([C@H](C)CCC(=O)O)CC[C@@H]45)cc3)C[C@@]21C | 8.48 | 7.85 | 9.77 | 7.25 | < 5.90 | 8.96
C#C[C@]1(O)CC[C@H]2[C@@H]3CCC4=CC(=O)CCC4=C3[C@@H](c3ccc(N(C)C(C)=O)cc3)C[C@@]21C | 8.05 | 7.47 | 9.40 |  | 6.10 | 8.85
C#C[C@]1(O)CC[C@H]2[C@@H]3CCC4=CC(=O)CCC4=C3[C@@H](c3ccc(N(C)CCCS(=O)(=O)N(C)C4CC[C@@]5(C)[C@@H](C4)C[C@@H](O)[C@@H]4[C@@H]5C[C@H](O)[C@]5(C)[C@@H]([C@H](C)CCC(=O)O)CC[C@@H]45)cc3)C[C@@]21C (some centres undefined) | 7.77 | 7.72 | 9.38 | 7.22 |  | 7.82
C#C[C@]1(O)CC[C@H]2[C@@H]3CCC4=CC(=O)CCC4=C3[C@@H](c3ccc(N(C)CCOC4CC[C@@]5(C)[C@@H](C4)C[C@@H](O)[C@@H]4[C@@H]5C[C@H](O)[C@]5(C)[C@@H]([C@H](C)CCC(=O)NCCS(=O)(=O)O)CC[C@@H]45)cc3)C[C@@]21C (some centres undefined) | 8.05 | 8.00 | 9.57 | 6.80 | < 5.90 | 7.43
C#C[C@]1(O)CC[C@H]2[C@@H]3CCC4=CC(=O)CCC4=C3[C@@H](c3ccc(N(C)CCOC4CC[C@@]5(C)[C@@H](C4)C[C@@H](O)[C@@H]4[C@@H]5C[C@H](O)[C@]5(C)[C@@H]([C@H](C)CCC(=O)O)CC[C@@H]45)cc3)C[C@@]21C (stereo in doubt; form 2) | 8.09 | 7.92 | 9.57 | 7.25 | 6.17 | 8.96
C#C[C@]1(O)CC[C@H]2[C@@H]3CCC4=CC(=O)CCC4=C3[C@@H](c3ccc(N(C)CCOC4CC[C@@]5(C)[C@@H](C4)C[C@@H](O)[C@@H]4[C@@H]5C[C@H](O)[C@]5(C)[C@@H]([C@H](C)CCC(=O)O)CC[C@@H]45)cc3)C[C@@]21C (stereo in doubt; form 1) | 8.05 | 7.96 | 9.17 | 6.66 | < 5.90 | 7.96
